# Measured values taken from ChEMBL document CHEMBL1132119, “1-Arylnaphthalene lignan: a novel scaffold for type 5 phosphodiesterase inhibitor” (J Med Chem, 1999).
# Molecular target: Phosphodiesterase 1 (Canis familiaris)
# Experiment: Inhibitory activity against phosphodiesterase 1 (PDE I), isolated from cardiac ventricle
# Conditions: not given
row,SMILES,IC50
1,COC(=O)c1c(CN2CCN(CCO)CC2)cc2cc(OC)c(OC)cc2c1-c1cc(OC)c(OC)c(OC)c1,26000 nM
2,COC(=O)c1c(C(=O)N2CCN(CCO)CC2)cc2cc(OC)c(OC)cc2c1-c1cc(Cl)cc(Cl)c1,> 100000 nM
3,COC(=O)c1c(C(=O)N2CCC(=O)CC2)cc2cc(OC)c(OC)cc2c1-c1cc(OC)c(OC)c(OC)c1,88000 nM
4,COC(=O)c1cc2cc(OC)c(OC)cc2c(-c2cc(OC)c(OC)c(OC)c2)c1C(=O)OC,> 100000 nM
5,COC(=O)c1c(C(=O)N2CCN(CCO)CC2)cc2cc(OC)c(OC)cc2c1-c1cc(OC)c(OC)c(OC)c1,41000 nM
6,CCOC(=O)C1CCN(C(=O)c2cc3cc(OC)c(OC)cc3c(-c3cc(OC)c(OC)c(OC)c3)c2C(=O)OC)CC1,24000 nM
7,COC(=O)c1c(C(=O)N2CCC(CO)CC2)cc2cc(OC)c(OC)cc2c1-c1cc(OC)c(OC)c(OC)c1,45000 nM
8,COC(=O)c1c(C(=O)N(C)C)cc2cc(OC)c(OC)cc2c1-c1cc(OC)c(OC)c(OC)c1,35000 nM
9,COC(=O)c1c(C(=O)N2CCN(CCO)CC2)cc2cc(OC)c(OC)cc2c1-c1cc(Cl)c(OC)c(OC)c1,26000 nM

# Molecular target: Phosphodiesterase 3 (Canis familiaris)
# Experiment: Inhibitory activity against phosphodiesterase 3 (PDE 3) isolated from cardiac ventricle
# Conditions: not given
row,SMILES,IC50
1,COC(=O)c1c(CN2CCN(CCO)CC2)cc2cc(OC)c(OC)cc2c1-c1cc(OC)c(OC)c(OC)c1,> 100000 nM
2,COC(=O)c1c(C(=O)N2CCN(CCO)CC2)cc2cc(OC)c(OC)cc2c1-c1cc(Cl)cc(Cl)c1,> 100000 nM
3,COC(=O)c1c(C(=O)N2CCC(=O)CC2)cc2cc(OC)c(OC)cc2c1-c1cc(OC)c(OC)c(OC)c1,> 100000 nM
4,COC(=O)c1cc2cc(OC)c(OC)cc2c(-c2cc(OC)c(OC)c(OC)c2)c1C(=O)OC,> 100000 nM
5,COC(=O)c1c(C(=O)N2CCN(CCO)CC2)cc2cc(OC)c(OC)cc2c1-c1cc(OC)c(OC)c(OC)c1,> 100000 nM
6,CCOC(=O)C1CCN(C(=O)c2cc3cc(OC)c(OC)cc3c(-c3cc(OC)c(OC)c(OC)c3)c2C(=O)OC)CC1,60000 nM
7,COC(=O)c1c(C(=O)N2CCC(CO)CC2)cc2cc(OC)c(OC)cc2c1-c1cc(OC)c(OC)c(OC)c1,> 100000 nM
8,COC(=O)c1c(C(=O)N(C)C)cc2cc(OC)c(OC)cc2c1-c1cc(OC)c(OC)c(OC)c1,16000 nM
9,COC(=O)c1c(C(=O)N2CCN(CCO)CC2)cc2cc(OC)c(OC)cc2c1-c1cc(Cl)c(OC)c(OC)c1,> 100000 nM

# Molecular target: Phosphodiesterase 4 (Canis familiaris)
# Experiment: Inhibition of canine lung Phosphodiesterase 4
# Conditions: not given
row,SMILES,IC50
1,COC(=O)c1c(C(=O)N2CCN(CCO)CC2)cc2cc(OC)c(OC)cc2c1-c1cc(OC)c(OC)c(OC)c1,> 100000 nM
2,COC(=O)c1c(C(=O)N2CCN(CCO)CC2)cc2cc(OC)c(OC)cc2c1-c1cc(Cl)c(OC)c(OC)c1,> 100000 nM

# Organism: Rattus norvegicus
# Experiment: Relaxant effect on rat aortic rings.
# Format: functional, organism-based
# Conditions: Aorta
row,SMILES,EC50
1,COC(=O)c1c(C(=O)N2CCN(CCO)CC2)cc2cc(OC)ccc2c1-c1cc(Br)c(OC)c(OC)c1,560 nM
2,O=C(O)C1CCN(c2nc(NCc3ccc4c(c3)OCO4)c3cc(Cl)ccc3n2)CC1,200 nM
3,COC(=O)c1c(C(=O)N2CCN(CCO)CC2)cc2c(Cl)cccc2c1-c1cc(Br)c(OC)c(OC)c1,100 nM
4,COC(=O)c1c(C(=O)N2CCN(CCO)CC2)cc2cc(OC)c(OC)cc2c1-c1cc(OC)c(OC)c(OC)c1,2000 nM
5,CCOc1cc2cc(C(=O)N3CCN(CCO)CC3)c(C(=O)OC)c(-c3cc(Br)c(OC)c(OC)c3)c2cc1OC,300 nM
6,COC(=O)c1c(C(=O)N2CCN(CCO)CC2)cc2cc(OC)c(OC)cc2c1-c1cc(Cl)c(OC)c(OC)c1,1300 nM

# Molecular target: cGMP-specific 3',5'-cyclic phosphodiesterase (Canis lupus familiaris, UniProt O77746)
# Experiment: Inhibitory activity against phosphodiesterase 5 (PDE V), isolated from lung
# Conditions: not given
row,SMILES,IC50
1,COC(=O)c1c(C(=O)N2CCN(CCO)CC2)cc2cc(OC)ccc2c1-c1cc(Br)c(OC)c(OC)c1,12 nM
2,COC(=O)c1c(C(=O)N2CCN(CCO)CC2)cc2cc(OC)c(OC)cc2c1-c1cc(OC)c(OC)cc1C,52000 nM
3,COC(=O)c1c(C(=O)N2CCCCC2)cc2cc(OC)c(OC)cc2c1-c1cc(OC)c(OC)c(OC)c1,2100 nM
4,O=C(O)C1CCN(c2nc(NCc3ccc4c(c3)OCO4)c3cc(Cl)ccc3n2)CC1,1.6 nM
5,COC(=O)c1c(C(=O)N2CCN(CCO)CC2)cc2cc(OC)c(OC)cc2c1/C=C/c1cc(OC)c(OC)c(OC)c1,> 100000 nM
6,COC(=O)c1c(C(=O)N2CCN(CCO)CC2)cc2c(Cl)cccc2c1-c1cc(Br)c(OC)c(OC)c1,6.2 nM
7,COC(=O)c1c(CN2CCN(CCO)CC2)cc2cc(OC)c(OC)cc2c1-c1cc(OC)c(OC)c(OC)c1,2400 nM
8,COC(=O)c1c(C(=O)N2CCN(CCO)CC2)cc2cc(OC)c(OC)cc2c1-c1cc(Cl)cc(Cl)c1,54000 nM
9,COC(=O)c1c(C(=O)N2CCN(CCO)CC2)cc2cc(OC)c(OC)cc2c1-c1ccnc(Br)c1,> 100000 nM
10,COC(=O)c1c(C(=O)N2CCC(=O)CC2)cc2cc(OC)c(OC)cc2c1-c1cc(OC)c(OC)c(OC)c1,500 nM
11,COC(=O)c1cc2cc(OC)c(OC)cc2c(-c2cc(OC)c(OC)c(OC)c2)c1C(=O)OC,2100 nM
12,COC(=O)c1c(C(=O)N2CCN(CCO)CC2)cc2cc(OC)c(OC)cc2c1-c1cc(OC)c(OC)c(OC)c1,94 nM
13,COC(=O)c1c(C(=O)N2CCOCC2)cc2cc(OC)c(OC)cc2c1-c1cc(OC)c(OC)c(OC)c1,390 nM
14,COC(=O)c1c(C(=O)N2CCCC2)cc2cc(OC)c(OC)cc2c1-c1cc(OC)c(OC)c(OC)c1,780 nM
15,CCOC(=O)C1CCN(C(=O)c2cc3cc(OC)c(OC)cc3c(-c3cc(OC)c(OC)c(OC)c3)c2C(=O)OC)CC1,2000 nM
16,COC(=O)c1c(C(=O)N2CCC(CO)CC2)cc2cc(OC)c(OC)cc2c1-c1cc(OC)c(OC)c(OC)c1,320 nM
17,CCOc1cc2cc(C(=O)N3CCN(CCO)CC3)c(C(=O)OC)c(-c3cc(Br)c(OC)c(OC)c3)c2cc1OC,17 nM
18,COC(=O)c1c(C(=O)N(C)C)cc2cc(OC)c(OC)cc2c1-c1cc(OC)c(OC)c(OC)c1,230 nM
19,COC(=O)c1c(C(=O)N2CCN(CCO)CC2)cc2cc(OC)c(OC)cc2c1-c1cc(Cl)c(OC)c(OC)c1,49 nM

# Molecular target: Phosphodiesterase 2 (Canis familiaris)
# Experiment: Inhibition of canine adrenal gland Phosphodiesterase 2
# Conditions: not given
row,SMILES,IC50
1,COC(=O)c1c(C(=O)N2CCN(CCO)CC2)cc2cc(OC)c(OC)cc2c1-c1cc(OC)c(OC)c(OC)c1,> 100000 nM
2,COC(=O)c1c(C(=O)N2CCN(CCO)CC2)cc2cc(OC)c(OC)cc2c1-c1cc(Cl)c(OC)c(OC)c1,> 100000 nM
